According to patent US8436002B2, “AKT inhibitors” (Eli Lilly and Company, priority 2009, dated 2013):
Like-named read-outs stand apart in the source and are kept apart here. One block for each compound: values may come before it.

Tests used:
AKT = AKT In Vivo Target Inhibition (Oral and Parenteral), U87MG tumors in athymic nude mice; conditions: Mus musculus, U-87 MG, after 2 hours at 12.5 mg/kg, mean of 6 animals per group
Protocol: U87MG human glioblastoma cells (5×106) are subcutaneously implanted into the flank of athymic nude mice in 0.2 mL of matrigel. Two weeks post-implantation, mice are dosed orally or parenterally according to a time course, single dose/single time point, or dose response protocol for the determination of TMED50 (threshold minimum effective dose). Tumors are flash frozen at harvest and blood is collected for the determination of parent compound plasma exposure and the calculation of TMEC50 (threshold minimum effective concentration) in the case of dose response studies. Tumors or tissues are pulverized in liquid N2 and lysed in 400 μL of XY Lysis Buffer (10 μg/mL Leupeptin, 10 μg/mL Trypsin-Chymotrypsin Inhibitor, 10 μg/mL Tosyl phenyl-alanyl chloromethyl ketone, 10 μg/mL Aprotinin, 60 mM Beta-Glycerol Phosphate, 1% Triton X100, 25 mM Tris pH 7.5, 2.5 mM Pyrophosphate, 150 mM NaCl, 2 mM p-tosyl-L-arginine methyl ester, 15 mM para-nitrophenyl phosphate, 5 mM Benzamidine, 1 mM Na Vanadate, 10 mM NaF, 50 μg/mL phenyl-methane sulfonyl fluoride, 1 mM 1,4-Dithiothreitol (DTT), 15 mM EDTA pH 8.0, 5 mM EGTA pH 8.0, 1 μM Microcystin, 1 μM Okadaic Acid, and 1 Roche Complete protease inhibitor mini-tablet per 10 mL) using Lysing Matrix D tubes (MP Biomedicals, Solon, Ohio, cat #6913-500) and a BIO101 Thermo Savant Fast Prep FP12. Lysates are aliquoted and either assayed immediately or stored at −80° C. for later testing. In Vivo Target Inhibition of AKT is measured utilizing Meso Scale Discovery (Gaithersburg, Md.) ELISA technology to assess effects on phosphorylation of the downstream effectors FOXO, PRAS40 and GSK3β(S9). In summary, 20 μg of lysate is added to carbon electrode containing 96-well plates pre-spotted with the appropriate capture antibodies. The protein of interest is probed using a ruthenium labeled detection antibody. Upon the passage of current over the electrode in the presence of read buffer containing the co-reactant TPA, electro-chemiluminescence results in the generation of light which is quantified and recorded using the MSD Sector 6000 instrument. For each study, percent inhibitions are calculated relative to the vehicle control group and ANOVA analysis is performed using the JMP software package for the determination of statistical significance.

[1] = test system: phosphorylated GSK3β (S9) in U87MG cells; test: AlphaScreen SureFire detection of phosphorylated GSK3β (S9) in U87MG cells; format: cell-based; conditions: Homo sapiens, U-87 MG, 1 hour, read-out: IC50, formation of phosphorylated GSK3β (S9)
Protocol: The effect of compounds on the formation of endogenous phosphorylated GSK3β serine 9 (pGSK3β) are measured using the AlphaScreen SureFire® for pGSK3β(TGRGBS10K). This is a homogeneous assay format using immuno-sandwich capture of the phosphorylated analyte followed by detection using antibody-coated Alphascreen beads to generate an amplified signal.
U87MG cells are maintained in U87MG growth medium consisting of DMEM supplemented with 10% Fetal bovine serum, 1% Nonessential amino acids and 1% sodium pyruvate. For the assay, cells are harvested by standard procedures and then counted using Vi-Cell. Cells (50,000/well) are plated in 100 μL of U87MG growth medium into Costar #3596 96 well plates. Plates are incubated overnight at 37° C., 5% CO2.
On the day of the assay, cells are treated with 20 μL/well compound diluted in media containing 6% dimethylsulfoxide. […] The plate is sealed with foil, incubated at room temperature for 4 hours with gentle shaking and then read on Perkin Elmer EnVision equipped with a TurboModule using standard AlphaScreen® settings (Ex680 nm and Em520-620 nm). The percent inhibition determined from controls on each plate and ten-point compound concentration data are then fit to a four-parameter logistic equation using ACTIVITYBASE 4.0 (Assay Guidance Manual Version 5.0, 2008, Eli Lilly and Company and NIH Chemical Genomics Center).

[2] = target: T1, ROCK2 Human recombinant enzyme (Homo sapiens, UniProt O75116); test: ROCK2 In Vitro Enzyme Assay (Transcreener Kinase ADP-FP); format: biochemical; conditions: 10 micromolar ATP; read-out: IC50 against ROCK2
T1 construct: ROCK2 Human recombinant enzyme (residues 11-552, histidine-tagged, expressed in insect cells); His tag; host or cells: insect cells
T1 sequence (O75116 11-552): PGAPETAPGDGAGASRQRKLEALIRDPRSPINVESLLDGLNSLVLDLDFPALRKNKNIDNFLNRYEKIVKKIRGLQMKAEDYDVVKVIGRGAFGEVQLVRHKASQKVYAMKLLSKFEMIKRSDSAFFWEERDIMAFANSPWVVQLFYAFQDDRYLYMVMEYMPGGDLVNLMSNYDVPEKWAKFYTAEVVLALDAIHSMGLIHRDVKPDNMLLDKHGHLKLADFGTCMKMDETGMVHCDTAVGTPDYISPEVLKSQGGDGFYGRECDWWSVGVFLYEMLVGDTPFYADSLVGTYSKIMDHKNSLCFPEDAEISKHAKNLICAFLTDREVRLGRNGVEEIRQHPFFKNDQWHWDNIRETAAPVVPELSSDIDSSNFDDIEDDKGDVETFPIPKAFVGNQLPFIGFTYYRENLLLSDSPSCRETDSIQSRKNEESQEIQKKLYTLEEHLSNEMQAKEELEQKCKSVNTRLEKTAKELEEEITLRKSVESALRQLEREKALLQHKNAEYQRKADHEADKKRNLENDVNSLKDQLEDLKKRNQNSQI
Protocol: Compound IC50 values against ROCK2 kinase are determined using the ROCK2 Transcreener™ Kinase ADP-FP Assay. This assay assesses the activity of ROCK2 in the presence of compound inhibitors by measuring the concentration of ADP formed in a kinase reaction. The kinase reactions (25 μL reaction volumes) are performed in 96-well half-area black polystyrene plates. Enzyme is added to start the reactions. Final reaction conditions are 20 millimolar 3-(N-Morpholino)-propanesulfonic acid pH 7.4, 4 millimolar beta-glycero-phosphate, 0.01% TRITON™ X-100, 5 millimolar magnesium chloride, 25 micromolar peptide substrate (sequence RFARKGSLRQKNV (SEQ ID NO:1)), 10 micromolar ATP, ROCK2 Human recombinant enzyme (residues 11-552, histidine-tagged, expressed in insect cells), 4% dimethysulfoxide and serial dilutions of compound (diluted 1:3 from 20,000 to 1 nanomolar). […] Quenched reactions are incubated for 4-16 hours, and then read in a Tecan Ultra Evolution plate reader in Fluorescence Polarization mode using polarizing filters of Ex612 nm and Em633 nm wavelength. […] The IC50 value for each compound is derived using percent inhibition data which is calculated using the micromolar ADP reaction data relative to on-plate controls (active enzyme versus 100 millimolar EDTA-inhibited enzyme controls). […]

hAKT1 Human Recombinant = target: T2, hAKT1 Human Recombinant (Homo sapiens, UniProt P31749); test: AKT1 In Vitro Enzyme Assay (Transcreener Kinase ADP-FP); format: biochemical; conditions: 20 micromolar ATP; read-out: IC50 against AKT1
T2 construct: His tag; host or cells: insect cells
T2 sequence (P31749 whole entry): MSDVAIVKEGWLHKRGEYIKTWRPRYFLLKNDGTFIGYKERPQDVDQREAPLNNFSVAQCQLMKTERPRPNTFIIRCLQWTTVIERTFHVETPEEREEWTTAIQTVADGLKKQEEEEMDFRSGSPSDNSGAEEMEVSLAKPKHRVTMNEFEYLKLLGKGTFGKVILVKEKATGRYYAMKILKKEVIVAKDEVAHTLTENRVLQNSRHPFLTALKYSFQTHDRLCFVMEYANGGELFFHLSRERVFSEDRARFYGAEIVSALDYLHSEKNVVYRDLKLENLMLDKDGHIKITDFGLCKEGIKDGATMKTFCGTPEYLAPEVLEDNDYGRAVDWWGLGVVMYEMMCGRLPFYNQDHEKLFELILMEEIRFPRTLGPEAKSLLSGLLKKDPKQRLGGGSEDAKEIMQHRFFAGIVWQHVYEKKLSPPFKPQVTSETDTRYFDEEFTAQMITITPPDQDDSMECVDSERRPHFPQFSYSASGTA
Protocol: Compound IC50 values against AKT1 target are determined using the AKT1 Transcreener™ Kinase ADP-FP Assay. This assay assesses the activity of AKT1 in the presence of compound inhibitors by measuring the concentration of adenosine diphosphate (ADP) formed in a kinase reaction. The kinase reactions (25 μL reaction volumes) are performed in 96-well half-area black polystyrene plates. Adenosine triphosphate (ATP) is added to start the reactions. Final reaction conditions are 56 millimolar N-2-hydroxyethylpiperazine-N′-2-ethanesulfonic acid (HEPES) pH 7.4, 0.008% TRITON™ X-100, 5 millimolar magnesium chloride, 30 micromolar Crosstide peptide, 20 micromolar ATP, hAKT1 Human Recombinant, V-AKT Murine Thymoma Viral Oncogene Homolog 1, histidine-tagged, expressed in insect cells, 4% dimethylsulfoxide and serial dilutions of compound (diluted 1:3 from 20,000 to 1 nanomolar). […] Quenched reactions are incubated for 4-16 hours, and then read in a Tecan Ultra Evolution plate reader in Fluorescence Polarization mode using polarizing filters of Ex612 nm and Em633 nm wavelength. […] The IC50 value for each compound is derived using percent inhibition data which is calculated using the micromolar ADP reaction data relative to on-plate controls (active enzyme versus 100 millimolar inhibited enzyme controls). […]

MDA-MB-231 = test: Cell proliferation combination study (CellTiter-Glo); format: cell-based; conditions: with Paclitaxel
Protocol: (§1) The proliferation assay uses the CellTiter-Glo Luminescent Cell Viability Assay System (commercially available from Promega) to determine the cell number of viable cells in culture based on quantitation of the ATP present, which signals the presence of metabolically active cells.
(§2) The cells are plated in 96-well plate at 2000 cells/well in volume of 50 μL medium (DMEM, 10% FBS, 25 mM HEPES, 1.0 mM Sodium Pyruvate, and 0.1 mM Non Essential Amino Acids) except column 1 with medium only as blank control. The plates are incubated overnight at 37° C. and 5% CO2. On the next day, compound stocks are prepared at 40 mM in DMSO (500×) and serially diluted in DMSO in a 96-well round bottom polypropylene plate. Compounds are assayed at 10 concentrations in duplicate, 4 compounds per plate.
(§3) 4 μL of the serial DMSO dilutions are transferred to a 96 deep-well plate and 1 mL complete culture medium is added to create 2× stock for dosing. 50 μL of each 2× dosing stock is gently transferred to the corresponding well of the cell plate resulting in a 0.2% DMSO concentration and a 100 μL final volume. […] medium are added to the Control columns (Column 12) and background columns (Column 1). Cells are incubated with compound for at 37° C., 5% CO2 for 72 hr.
(§4) After incubation, 100 μL of the pre-prepared CellTiter-Glo reagent (Promega, Cat: G7571) is added in each well and then the cells are homogenized by mixing on an orbital shaker for 2 min and incubated at RT for 10 minutes to allow luminescent signal stabilization Luminescent raw data is recorded on Wallac Victor V plate reader and the IC50 value for each compound is generated using percent inhibition data. A four-parameter logistic curve is fit to each dose response.
(§5) Combination studies use the fixed ratio method, where the other therapeutic agent and the compound of the present invention are present in fixed ratios of concentrations corresponding to the IC50 equivalents of single agents. The read out for the combination studies is cell proliferation in respective cell lines using Cell Titer Glo reagents. Controls are processed similarly but without the compounds. Analysis of the data is done according to the method described in Zhao et. Al. (Clinical Cancer Research 10, 7994-8004, Dec. 1, 2004) utilizing an internally developed web based tool. A combination index is calculated for each cell proliferation inhibition activity level according to the equation below. Combination Index at activity level x=[Concentration of other therapeutic agent in the combination at the activity level x/ICx of the other therapeutic agent]+[Concentration of the compound of the present invention in the combination at the activity level x/ICx of the compound of the present invention]

H1155 = test: as above; format: cell-based
Protocol: as §1, §2, §3, §4, §5

MCF-7 = test: as above; format: cell-based; conditions: with Paclitaxel
Protocol: as §1, §2, §3, §4, §5

Structure (SMILES): CCc1cn(CCN2CCCC2)c(C2CCN(c3ncnc4c3[C@H](C(F)(F)F)CC(=O)N4)CC2)n1 [Example 26, (R)-4-(4-(4-ethyl-1-(2-(pyrrolidin-1-yl)ethyl)-1H-imidazol-2-yl)piperidin-1-yl)-5-(trifluoromethyl)-5,6-dihydropyrido[2,3-d]pyrimidin-7(8H)-one]
inhibition at 12.5 mg/kg (AKT; read-out: Mean % Inhibition FOXO3a (T32)): 36.8%
inhibition at 12.5 mg/kg (AKT; read-out: Mean % Inhibition pAKT (S473)): 21.7%
inhibition at 12.5 mg/kg (AKT; read-out: Mean % Inhibition pGSK3β (S9)): 34.4%
inhibition at 12.5 mg/kg (AKT; read-out: Mean % Inhibition pPRAS40 (T246)): 8.1%

IC50 [1]: 1500 nM
IC50 [2]: > 20000 nM
IC50 (hAKT1 Human Recombinant): 17 nM
Structure (SMILES): C[C@@H]1CC(=O)Nc2ncnc(N3CCC(c4nc(Cl)cn4CCN4CCCC4)CC3)c21 [Example 41, (R)-4-(4-(4-chloro-1-(2-(pyrrolidin-1-yl)ethyl)-1H-imidazol-2-yl)piperidin-1-yl)-5-methyl-5,6-dihydropyrido[2,3-d]pyrimidin-7(8H)-one]

Structure (SMILES): C[C@@H]1CC(=O)Nc2ncnc(N3CCC(c4nc(C5CCOCC5)cn4CCN4CCCC4)CC3)c21 [Example 73, (R)-5-Methyl-4-(4-(1-(2-(pyrrolidin-1-yl)ethyl)-4-(tetrahydro-2H-pyran-4-yl)-1H-imidazol-2-yl)piperidin-1-yl)-5,6-dihydropyrido[2,3-d]pyrimidin-7(8H)-one]
Combination Index at 50% Inhibition (MDA-MB-231): 1.25
Combination Index at 50% Inhibition (H1155; with Cisplatin): 0.82
Combination Index at 50% Inhibition (H1155; with Gemcitabine): 0.87
Combination Index at 50% Inhibition (H1155; with Pemetrexed): 0.29
Combination Index at 50% Inhibition (MCF-7): 0.56
